Assay results as given in patent publication US11629171B2, “Beta-hairpin peptidomimetics” (POLYPHOR AG, priority 2017, dated 2023).
Values after ≈ are worked out from the molar mass of the structure shown. Where a SMILES comes first, the peptide text is derived from it. Bridges are numbered along the chain shown (N, C = ends). Roman numbers before positions name the chains, in order. [ ]: non-standard residue; d: D form. dDab = NCC[C@@H](N)C(=O)O; hSer = N[C@@H](CCO)C(=O)O; Dab = NCC[C@H](N)C(=O)O; Nva = CCC[C@H](N)C(=O)O; Dap = NC[C@H](N)C(=O)O

Assays:
Format in all cases: cell-based
[1] = system: Pseudomonas aeruginosa ATCC 27853; settings: ATCC 27853
Summary of the method: (§1)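 Standard CLSI microdilution testing: bacterial suspensions standardized against 0.5 McFarland to about 10^6 CFU/mL in MH-II broth meet serially halved peptide concentrations in broth containing 0.002% polysorbate 80; incubation lasts 18-20 h at 35° C before the MIC is scored.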

[2] = system: Acinetobacter baumannii 872842; settings: 872842
Summary of the method: as §1

[3] = system: Klebsiella pneumoniae 968733; settings: 968733
Summary of the method: as §1

[4] = system: Acinetobacter baumannii DSM 30008; settings: DSM 30008
Summary of the method: as §1

[5] = system: Enterobacter cloacae 848840; settings: 848840
Summary of the method: as §1

[6] = system: Klebsiella pneumoniae SSI #3010; settings: SSI #3010
Summary of the method: as §1

[7] = system: Escherichia coli ATCC 25922; settings: ATCC 25922
Summary of the method: as §1

[8] = system: Escherichia coli 926415; settings: 926415
Summary of the method: as §1

[9] = system: human red blood cells (hRBC); assay: Hemolysis; settings: red cells of human, 1 h, 200
Summary of the method: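 Washed fresh human RBC (20% v/v) incubated with peptide at 200 μg/mL for 1 h at 37° C with shaking. Supernatant OD540 measured after dilution, blank corrected; percent hemolysis = OD540 peptide / OD540 of 2% Triton X-100 lysis × 100, PBS with 10% water as 0%.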

Pseudomonas aeruginosa ATCC 27853 MIC [1] | MIC [2] | MIC [3] | Acinetobacter baumannii DSM 30008 MIC [4] | MIC [5] | Klebsiella pneumoniae SSI #3010 MIC [6] | Escherichia coli ATCC 25922 MIC [7] | MIC [8] | SMILES | Hemolysis at 200 μg/mL [9]
0.125 µg/mL | 0.125 µg/mL (≈ 0.0521 µM) | 0.25 µg/mL (≈ 0.104 µM) | 0.0625 µg/mL | 0.25 µg/mL (≈ 0.104 µM) | 0.0625 µg/mL | 0.0625 µg/mL | 0.25 µg/mL (≈ 0.104 µM) | CC(=O)N[C@H](C(=O)N[C@H]1CSSC[C@@H](C(=O)N[C@@H](CO)C(N)=O)NC(=O)[C@H](C(C)C)NC(=O)[C@H](CO)NC(=O)[C@H](Cc2c[nH]c3ccccc23)NC(=O)[C@@H](CO)NC(=O)[C@@H](CCN)NC(=O)[C@H](CCC(=O)N[C@@H](CCN)C(=O)N[C@H](C(=O)N[C@@H](CN)C(=O)N[C@H]2CCNC(=O)[C@H]([C@@H](C)O)NC(=O)[C@H](CCN)NC(=O)[C@H](CCN)NC(=O)[C@H](CC(C)C)NC(=O)[C@@H](CC(C)C)NC(=O)[C@H](CCN)NC2=O)[C@@H](C)O)NC(=O)[C@H](CCN)NC(=O)[C@H](Cc2ccc(O)cc2)NC1=O)C(C)C [Ex. 305] (I: Ac-VCY[Dab]E[dDab][dS]WSVCS-NH2 / II: [Dab]T[Dap][Dab][Dab][dL]L[Dab][Dab]T; disulfide I:2-I:11; amide I:5-II:N; lactam II:4-II:C) | 3%
0.125 µg/mL | 0.5 µg/mL (≈ 0.212 µM) | 1 µg/mL (≈ 0.425 µM) | 0.25 µg/mL | 4 µg/mL (≈ 1.7 µM) | 0.125 µg/mL | 0.125 µg/mL | 0.5 µg/mL (≈ 0.212 µM) | CC(=O)N[C@H](C(=O)N[C@H]1CSSC[C@@H](C(=O)N[C@@H](CO)C(N)=O)NC(=O)[C@H](C(C)C)NC(=O)[C@H](CO)NC(=O)[C@H](Cc2c[nH]c3ccccc23)NC(=O)[C@H](CO)NC(=O)[C@@H](CCN)NC(=O)[C@H](CCC(=O)N[C@@H](CCN)C(=O)NCC(=O)N[C@@H](CN)C(=O)N[C@H]2CCNC(=O)[C@H]([C@@H](C)O)NC(=O)[C@H](CCN)NC(=O)[C@H](CCN)NC(=O)[C@H](CC(C)C)NC(=O)[C@@H](CC(C)C)NC(=O)[C@H](CCN)NC2=O)NC(=O)[C@H](CCN)NC(=O)[C@H](Cc2ccc(O)cc2)NC1=O)C(C)C [Ex. 307] (I: Ac-VCY[Dab]E[dDab]SWSVCS-NH2 / II: [Dab]G[Dap][Dab][Dab][dL]L[Dab][Dab]T; disulfide I:2-I:11; amide I:5-II:N; lactam II:4-II:C) | <1%
0.125 µg/mL | 0.5 µg/mL (≈ 0.208 µM) | 1 µg/mL (≈ 0.417 µM) | 0.125 µg/mL | 1 µg/mL (≈ 0.417 µM) | 0.25 µg/mL | 0.0625 µg/mL | 0.5 µg/mL (≈ 0.208 µM) | CC(=O)N[C@H](C(=O)N[C@H]1CSSC[C@@H](C(=O)N[C@@H](CO)C(N)=O)NC(=O)[C@H](C(C)C)NC(=O)[C@H](CO)NC(=O)[C@H](Cc2c[nH]c3ccccc23)NC(=O)[C@H](CO)NC(=O)[C@@H](CCN)NC(=O)[C@H](CCC(=O)N[C@@H](CCN)C(=O)N[C@@H](CCO)C(=O)N[C@@H](CN)C(=O)N[C@H]2CCNC(=O)[C@H]([C@@H](C)O)NC(=O)[C@H](CCN)NC(=O)[C@H](CCN)NC(=O)[C@H](CC(C)C)NC(=O)[C@@H](CC(C)C)NC(=O)[C@H](CCN)NC2=O)NC(=O)[C@H](CCN)NC(=O)[C@H](Cc2ccc(O)cc2)NC1=O)C(C)C [Ex. 308] (I: Ac-VCY[Dab]E[dDab]SWSVCS-NH2 / II: [Dab][hSer][Dap][Dab][Dab][dL]L[Dab][Dab]T; disulfide I:2-I:11; amide I:5-II:N; lactam II:4-II:C) | <1%
0.125 µg/mL | 0.0625 µg/mL (≈ 0.0262 µM) | 0.125 µg/mL (≈ 0.0524 µM) | 0.03125 µg/mL | 0.0625 µg/mL (≈ 0.0262 µM) | 0.0625 µg/mL | 0.03125 µg/mL | 0.25 µg/mL (≈ 0.105 µM) | CC(=O)N[C@H](C(=O)N[C@H]1CSSC[C@@H](C(=O)N[C@@H](CO)C(N)=O)NC(=O)[C@H](C(C)C)NC(=O)[C@H](CO)NC(=O)[C@H](Cc2c[nH]c3ccccc23)NC(=O)[C@H](CO)NC(=O)[C@@H](CCN)NC(=O)[C@H](CCC(=O)N[C@@H](CCN)C(=O)N[C@H](C(=O)N[C@@H](CN)C(=O)N[C@H]2CCNC(=O)[C@H]([C@@H](C)O)NC(=O)[C@H](CCN)NC(=O)[C@H](CCN)NC(=O)[C@H](C(C)C)NC(=O)[C@@H](CC(C)C)NC(=O)[C@H](CCN)NC2=O)[C@@H](C)O)NC(=O)[C@H](CCN)NC(=O)[C@H](Cc2ccc(O)cc2)NC1=O)C(C)C [Ex. 312] (I: Ac-VCY[Dab]E[dDab]SWSVCS-NH2 / II: [Dab]T[Dap][Dab][Dab][dL]V[Dab][Dab]T; disulfide I:2-I:11; amide I:5-II:N; lactam II:4-II:C) | <1%
0.125 µg/mL | 0.125 µg/mL (≈ 0.0524 µM) | 0.125 µg/mL (≈ 0.0524 µM) | 0.03125 µg/mL | 0.0625 µg/mL (≈ 0.0262 µM) | 0.0625 µg/mL | 0.01562 µg/mL | 0.125 µg/mL (≈ 0.0524 µM) | CCC[C@@H]1NC(=O)[C@@H](CC(C)C)NC(=O)[C@H](CCN)NC(=O)[C@@H](NC(=O)[C@H](CN)NC(=O)[C@@H](NC(=O)[C@H](CCN)NC(=O)CC[C@@H]2NC(=O)[C@H](CCN)NC(=O)[C@H](Cc3ccc(O)cc3)NC(=O)[C@@H](NC(=O)[C@@H](NC(C)=O)C(C)C)CSSC[C@@H](C(=O)N[C@@H](CO)C(N)=O)NC(=O)[C@H](C(C)C)NC(=O)[C@H](CO)NC(=O)[C@H](Cc3c[nH]c4ccccc34)NC(=O)[C@H](CO)NC(=O)[C@@H](CCN)NC2=O)[C@@H](C)O)CCNC(=O)[C@H]([C@@H](C)O)NC(=O)[C@H](CCN)NC(=O)[C@H](CCN)NC1=O [Ex. 313] (I: Ac-VCY[Dab]E[dDab]SWSVCS-NH2 / II: [Dab]T[Dap][Dab][Dab][dL][Nva][Dab][Dab]T; disulfide I:2-I:11; amide I:5-II:N; lactam II:4-II:C) | <1%
0.25 µg/mL | 0.0625 µg/mL (≈ 0.0259 µM) | 0.125 µg/mL (≈ 0.0518 µM) | 0.01562 µg/mL | 0.125 µg/mL (≈ 0.0518 µM) | 0.125 µg/mL | 0.01562 µg/mL | 0.0625 µg/mL (≈ 0.0259 µM) | CC(=O)N[C@@H](CC(C)C)C(=O)N[C@H]1CSSC[C@@H](C(=O)N[C@@H](CO)C(N)=O)NC(=O)[C@H](C(C)C)NC(=O)[C@H](CO)NC(=O)[C@H](Cc2c[nH]c3ccccc23)NC(=O)[C@H](CO)NC(=O)[C@@H](CCN)NC(=O)[C@H](CCC(=O)N[C@@H](CCN)C(=O)N[C@H](C(=O)N[C@@H](CN)C(=O)N[C@H]2CCNC(=O)[C@H]([C@@H](C)O)NC(=O)[C@H](CCN)NC(=O)[C@H](CCN)NC(=O)[C@H](CC(C)C)NC(=O)[C@@H](CC(C)C)NC(=O)[C@H](CCN)NC2=O)[C@@H](C)O)NC(=O)[C@H](CCN)NC(=O)[C@H](Cc2ccc(O)cc2)NC1=O [Ex. 314] (I: Ac-LCY[Dab]E[dDab]SWSVCS-NH2 / II: [Dab]T[Dap][Dab][Dab][dL]L[Dab][Dab]T; disulfide I:2-I:11; amide I:5-II:N; lactam II:4-II:C) | 2%
0.0625 µg/mL | 0.0625 µg/mL (≈ 0.0259 µM) | 0.0625 µg/mL (≈ 0.0259 µM) | 0.01562 µg/mL | 0.125 µg/mL (≈ 0.0518 µM) | 0.0625 µg/mL | 0.01562 µg/mL | 0.0625 µg/mL (≈ 0.0259 µM) | CC[C@H](C)[C@@H]1NC(=O)[C@H](CO)NC(=O)[C@H](Cc2c[nH]c3ccccc23)NC(=O)[C@H](CO)NC(=O)[C@@H](CCN)NC(=O)[C@H](CCC(=O)N[C@@H](CCN)C(=O)N[C@H](C(=O)N[C@@H](CN)C(=O)N[C@H]2CCNC(=O)[C@H]([C@@H](C)O)NC(=O)[C@H](CCN)NC(=O)[C@H](CCN)NC(=O)[C@H](CC(C)C)NC(=O)[C@@H](CC(C)C)NC(=O)[C@H](CCN)NC2=O)[C@@H](C)O)NC(=O)[C@H](CCN)NC(=O)[C@H](Cc2ccc(O)cc2)NC(=O)[C@@H](NC(=O)[C@@H](NC(C)=O)C(C)C)CSSC[C@@H](C(=O)N[C@@H](CO)C(N)=O)NC1=O [Ex. 315] (I: Ac-VCY[Dab]E[dDab]SWSICS-NH2 / II: [Dab]T[Dap][Dab][Dab][dL]L[Dab][Dab]T; disulfide I:2-I:11; amide I:5-II:N; lactam II:4-II:C) | 2%
